From the OligoGym collection
HELM strings list units from the 5' end as sugar, base in round brackets, then linkage (d deoxyribose, r ribose, m 2'-O-methyl, p phosphodiester). Strings are as the collection lists them; they lack the last nucleoside at the 3' end of the tested compound. [moe] = 2'-O-(2-methoxyethyl) (MOE); [sp] = phosphorothioate linkage; [m5C] = 5-methylcytosine

Molecular target: ATXN3
Assay: mouse, dose not given
Details: ASO

Question: How did the 3 h FOB score turn out when “RNA1{[moe](A)[sp].[moe](A)p.[moe](T)p.[moe](G)p.[moe]([m5C])[sp].d(T)[sp].d([m5C])[sp].d(A)[sp].d(T)[sp].d(T)[sp].d(T)[sp].d(A)[sp].d(T)[sp].d(T)[sp].d([m5C])[sp].[moe](T)p.[moe]([m5C])p.[moe](A)[sp].[moe](A)}$$$$ (last 3' nucleoside missing)” was run?
Answer: 2 score 0-7

Question: “RNA1{[moe](A)[sp].[moe](A)p.[moe](T)p.[moe](G)p.[moe]([m5C])p.d(A)[sp].d(T)[sp].d(A)[sp].d(T)[sp].d(T)[sp].d(G)[sp].d(G)[sp].d(T)[sp].d(T)[sp].d(T)[sp].[moe](T)p.[moe]([m5C])p.[moe](T)[sp].[moe]([m5C])}$$$$ (last 3' nucleoside missing)” was tested. Which 3 h FOB score did it give?
Answer: 4 score 0-7

Question: How did the 3 h FOB score turn out when “RNA1{[moe](A)[sp].[moe](A)p.[moe](T)p.[moe](T)p.[moe]([m5C])[sp].d(T)[sp].d(T)[sp].d(G)[sp].d([m5C])[sp].d(T)[sp].d(T)[sp].d([m5C])[sp].d(A)[sp].d(A)[sp].d([m5C])[sp].[moe]([m5C])p.[moe](A)p.[moe](T)[sp].[moe]([m5C])}$$$$ (last 3' nucleoside missing)” was run?
Answer: 1.25 score 0-7

Question: How did the 3 h FOB score turn out when “RNA1{[moe](A)[sp].[moe](G)[sp].[moe]([m5C])p.[moe]([m5C])p.[moe](A)[sp].d(A)[sp].d(T)[sp].d(A)[sp].d(T)[sp].d(T)[sp].d(T)[sp].d(A)[sp].d(T)[sp].d(A)[sp].d(G)[sp].[moe](G)p.[moe](T)p.[moe](G)[sp].[moe]([m5C])}$$$$ (last 3' nucleoside missing)” was run?
Answer: 1 score 0-7

Question: How did the 3 h FOB score turn out when “RNA1{[moe](A)[sp].[moe](G)p.[moe](T)p.[moe](G)p.[moe]([m5C])[sp].d(T)[sp].d(A)[sp].d(T)[sp].d(A)[sp].d(A)[sp].d(T)[sp].d(T)[sp].d([m5C])[sp].d(T)[sp].d(T)[sp].[moe](G)p.[moe]([m5C])p.[moe](T)[sp].[moe](T)}$$$$ (last 3' nucleoside missing)” was run?
Answer: 0.25 score 0-7

Question: For “RNA1{[moe](A)[sp].[moe](G)p.[moe](T)p.[moe](G)p.[moe]([m5C])[sp].d(T)[sp].d(U)[sp].d(T)[sp].d(T)[sp].d([m5C])[sp].d(A)[sp].d(T)[sp].d(A)[sp].d([m5C])[sp].d([m5C])[sp].[moe](A)p.[moe](G)p.[moe](G)[sp].[moe](T)}$$$$ (last 3' nucleoside missing)”, which 3 h FOB score is on record?
Answer: 0.75 score 0-7

Question: For “RNA1{[moe](A)[sp].[moe](G)p.[moe](T)p.[moe](G)p.[moe]([m5C])p.[moe](T)p.d(T)[sp].d(T)[sp].d(T)[sp].d([m5C])[sp].d(A)[sp].d(T)[sp].d(A)[sp].d([m5C])[sp].d([m5C])[sp].d(A)[sp].[moe](G)p.[moe](G)[sp].[moe](T)}$$$$ (last 3' nucleoside missing)”, which 3 h FOB score is on record?
Answer: 1 score 0-7

Question: “RNA1{[moe](A)[sp].[moe](G)p.[moe]([m5C])p.[moe]([m5C])p.[moe](A)[sp].d(A)[sp].d(T)[sp].d(A)[sp].d(T)[sp].d(T)[sp].d(T)[sp].d(A)[sp].d(T)[sp].d(A)[sp].d(G)[sp].[moe](G)p.[moe](T)p.[moe](G)[sp].[moe]([m5C])}$$$$ (last 3' nucleoside missing)” was tested. Which 3 h FOB score did it give?
Answer: 1 score 0-7

Question: For “RNA1{[moe](A)[sp].[moe](G)p.[moe]([m5C])p.[moe]([m5C])p.[moe](A)p.d(A)[sp].d(T)[sp].d(A)[sp].d(T)[sp].d(T)[sp].d(T)[sp].d(A)[sp].d(T)[sp].d(A)[sp].d(G)[sp].[moe](G)p.[moe](T)p.[moe](G)[sp].[moe]([m5C])}$$$$ (last 3' nucleoside missing)”, which 3 h FOB score is on record?
Answer: 1 score 0-7

Question: Which 3 h FOB score does the source give for “RNA1{[moe](A)[sp].[moe](T)p.[moe](G)[sp].[moe](T)[sp].[moe](T)[sp].d(A)[sp].d(A)[sp].d(T)[sp].d(A)[sp].d([m5C])[sp].d(T)[sp].d(T)[sp].d(T)[sp].d(T)[sp].d(T)[sp].[moe]([m5C])[sp].[moe]([m5C])p.[moe](A)[sp].[moe](G)}$$$$ (last 3' nucleoside missing)” here?
Answer: 0.25 score 0-7

Question: With “RNA1{[moe](A)[sp].[moe](T)p.[moe](G)p.[moe](A)p.[moe](G)[sp].d([m5C])[sp].d([m5C])[sp].d(A)[sp].d(A)[sp].d(T)[sp].d(A)[sp].d(T)[sp].d(T)[sp].d(T)[sp].d(A)[sp].[moe](T)p.[moe](A)p.[moe](G)[sp].[moe](G)}$$$$ (last 3' nucleoside missing)” as the substance, how does the 3 h FOB score read?
Answer: 1 score 0-7

Question: With “RNA1{[moe](A)[sp].[moe](T)p.[moe](G)p.[moe](T)p.[moe](T)[sp].d([m5C])[sp].d(A)[sp].d(T)[sp].d(A)[sp].d(T)[sp].d([m5C])[sp].d([m5C])[sp].d(T)[sp].d(T)[sp].d(T)[sp].[moe](A)p.[moe](A)p.[moe]([m5C])[sp].[moe]([m5C])}$$$$ (last 3' nucleoside missing)” as the substance, how does the 3 h FOB score read?
Answer: 0 score 0-7

Question: For “RNA1{[moe](A)[sp].[moe](T)p.[moe](G)p.[moe](T)p.[moe](T)p.[moe]([m5C])p.d(A)[sp].d(T)[sp].d(A)[sp].d(T)[sp].d([m5C])[sp].d([m5C])[sp].d(T)[sp].d(T)[sp].d(T)[sp].d(A)[sp].[moe](A)p.[moe]([m5C])[sp].[moe]([m5C])}$$$$ (last 3' nucleoside missing)”, which 3 h FOB score is on record?
Answer: 0 score 0-7

Question: “RNA1{[moe](A)[sp].[moe](T)p.[moe](G)p.[moe]([m5C])p.[moe](T)[sp].d([m5C])[sp].d(A)[sp].d(T)[sp].d(T)[sp].d(T)[sp].d(A)[sp].d(T)[sp].d(T)[sp].d([m5C])[sp].d(T)[sp].[moe]([m5C])p.[moe](A)p.[moe](A)[sp].[moe](G)}$$$$ (last 3' nucleoside missing)” was tested. Which 3 h FOB score did it give?
Answer: 0 score 0-7

Question: For “RNA1{[moe](A)[sp].[moe](T)p.[moe](T)p.[moe](T)p.[moe](T)[sp].d([m5C])[sp].d(A)[sp].d(T)[sp].d(G)[sp].d(T)[sp].d(T)[sp].d([m5C])[sp].d([m5C])[sp].d(A)[sp].d(G)[sp].[moe](A)p.[moe](T)p.[moe]([m5C])[sp].[moe](A)}$$$$ (last 3' nucleoside missing)”, which 3 h FOB score is on record?
Answer: 1 score 0-7

Question: For “RNA1{[moe](A)[sp].[moe](T)p.[moe](T)p.[moe]([m5C])p.[moe](T)[sp].d(T)[sp].d(G)[sp].d([m5C])[sp].d(T)[sp].d(T)[sp].d([m5C])[sp].d(A)[sp].d(A)[sp].d([m5C])[sp].d([m5C])[sp].[moe](A)p.[moe](T)p.[moe]([m5C])[sp].[moe](A)}$$$$ (last 3' nucleoside missing)”, which 3 h FOB score is on record?
Answer: 0.375 score 0-7

Question: Which 3 h FOB score does the source give for “RNA1{[moe](A)[sp].[moe](T)p.[moe]([m5C])p.[moe](A)p.[moe]([m5C])[sp].d(T)[sp].d(G)[sp].d([m5C])[sp].d(A)[sp].d([m5C])[sp].d(A)[sp].d([m5C])[sp].d(T)[sp].d(T)[sp].d(T)[sp].[moe]([m5C])p.[moe]([m5C])p.[moe](T)[sp].[moe]([m5C])}$$$$ (last 3' nucleoside missing)” here?
Answer: 0 score 0-7

Question: Which 3 h FOB score does the source give for “RNA1{[moe](A)[sp].[moe]([m5C])p.[moe](T)p.[moe](A)p.[moe]([m5C])[sp].d([m5C])[sp].d(T)[sp].d(T)[sp].d(G)[sp].d([m5C])[sp].d(A)[sp].d(T)[sp].d(A)[sp].d([m5C])[sp].d(T)[sp].[moe](T)p.[moe](A)p.[moe](G)[sp].[moe]([m5C])}$$$$ (last 3' nucleoside missing)” here?
Answer: 1.12 score 0-7

Question: How did the 3 h FOB score turn out when “RNA1{[moe](A)[sp].[moe]([m5C])p.[moe](T)p.[moe](G)p.[moe](G)[sp].d(T)[sp].d([m5C])[sp].d(A)[sp].d(G)[sp].d(T)[sp].d(T)[sp].d(T)[sp].d([m5C])[sp].d([m5C])[sp].d(T)[sp].[moe](A)p.[moe](A)p.[moe](T)[sp].[moe](T)}$$$$ (last 3' nucleoside missing)” was run?
Answer: 0 score 0-7

Question: With “RNA1{[moe](A)[sp].[moe]([m5C])p.[moe](T)p.[moe](G)p.[moe]([m5C])[sp].d(A)[sp].d([m5C])[sp].d(A)[sp].d([m5C])[sp].d(T)[sp].d(T)[sp].d(T)[sp].d([m5C])[sp].d([m5C])[sp].d(T)[sp].[moe]([m5C])p.[moe]([m5C])p.[moe](T)[sp].[moe]([m5C])}$$$$ (last 3' nucleoside missing)” as the substance, how does the 3 h FOB score read?
Answer: 0 score 0-7

Question: With “RNA1{[moe](A)[sp].[moe]([m5C])p.[moe]([m5C])p.[moe](A)p.[moe](T)[sp].d([m5C])[sp].d(T)[sp].d(T)[sp].d(T)[sp].d(G)[sp].d(A)[sp].d([m5C])[sp].d(A)[sp].d(A)[sp].d(G)[sp].[moe]([m5C])p.[moe](T)p.[moe](A)[sp].[moe](T)}$$$$ (last 3' nucleoside missing)” as the substance, how does the 3 h FOB score read?
Answer: 2.75 score 0-7

Question: How did the 3 h FOB score turn out when “RNA1{[moe](A)[sp].[moe]([m5C])p.[moe]([m5C])p.[moe]([m5C])p.[moe](A)[sp].d(A)[sp].d(T)[sp].d(A)[sp].d(A)[sp].d(T)[sp].d([m5C])[sp].d(T)[sp].d(G)[sp].d(A)[sp].d([m5C])[sp].[moe](A)p.[moe](T)p.[moe]([m5C])[sp].[moe]([m5C])}$$$$ (last 3' nucleoside missing)” was run?
Answer: 0 score 0-7

Question: For “RNA1{[moe](G)[sp].[moe](G)p.[moe](T)p.[moe](T)p.[moe](T)[sp].d(T)[sp].d([m5C])[sp].d(T)[sp].d([m5C])[sp].d(A)[sp].d(T)[sp].d(T)[sp].d(T)[sp].d(T)[sp].d(T)[sp].[moe](A)p.[moe](T)p.[moe](A)[sp].[moe](T)}$$$$ (last 3' nucleoside missing)”, which 3 h FOB score is on record?
Answer: 2.25 score 0-7

Question: Which 3 h FOB score does the source give for “RNA1{[moe](G)[sp].[moe](G)p.[moe](T)p.[moe]([m5C])p.[moe](A)p.[moe](G)p.d(T)[sp].d(T)[sp].d(T)[sp].d([m5C])[sp].d([m5C])[sp].d(T)[sp].d(A)[sp].d(A)[sp].d(T)[sp].d(T)[sp].[moe](T)p.[moe](T)[sp].[moe](A)}$$$$ (last 3' nucleoside missing)” here?
Answer: 1 score 0-7

Question: For “RNA1{[moe](G)[sp].[moe](G)p.[moe]([m5C])p.[moe](A)p.[moe]([m5C])p.[moe](A)p.d(T)[sp].d(T)[sp].d(T)[sp].d(T)[sp].d(T)[sp].d(T)[sp].d(A)[sp].d(T)[sp].d(A)[sp].d(G)[sp].[moe](A)p.[moe](G)[sp].[moe](T)}$$$$ (last 3' nucleoside missing)”, which 3 h FOB score is on record?
Answer: 1 score 0-7

Question: “RNA1{[moe](G)[sp].[moe](G)p.[moe]([m5C])p.[moe](A)p.[moe]([m5C])p.d(A)[sp].d(T)[sp].d(T)[sp].d(T)[sp].d(T)[sp].d(T)[sp].d(T)[sp].d(A)[sp].d(T)[sp].d(A)[sp].[moe](G)p.[moe](A)p.[moe](G)[sp].[moe](T)}$$$$ (last 3' nucleoside missing)” was tested. Which 3 h FOB score did it give?
Answer: 1.25 score 0-7
